“And” between values parts separate entries of the source, which are not always exact repeats. Identical values can stand only once.
How the values were obtained:
GCR = settings: read-out: GCR EC50; printed in Fig 9; ref J Biol Chem. 2002 Jan 11; PMID: 11682470; cited from earlier work
[1] = Plasma DEX concentrations on discontinuous oral DEX regimen in drinking water (Fig 3); assay type: in vivo, mouse; settings: for concentration at 3.5 day / concentration at 10.5 day / concentration at 17.5 day: C57BL/6, mouse, oral, 8 mg/L, Dexamethasone conc; for observed systemic (plasma) concentrations of DEX, range: mice on the discontinuous DEX regimen
Procedure: (§1) 1 g/L of tetracycline (Sigma-Aldrich Inc, St. Louis, MO, USA) was added during both phases. Assuming that mice drink 5 mL of water per day, the dose they receive would be 1.6–2 mg/kg/day. […] At the end of in vivo procedures, all plasma samples were transferred from dry ice and stored at –80°C until analysis.
Sidak’s multiple comparison test (**p<0.01, ****p<0.0001) was used to further analyze the effect of vitamin D status at each time point.

[2] = Repeated discontinuous oral DEX PK study (another 60 mice); assay type: in vivo, mouse; settings: for share of mice with measurable DEX / share of mice with DEX plasma concentration below LLOQ: Days 3.5+10.5; for share of mice with DEX plasma concentration below LLOQ: LLOQ = 5 nM; for concentration at 3.5 day / concentration at 10.5 day / concentration at 17.5 day: 8 mg/L, Average ± S.D. of quantifiable samples; for concentration at 3.5 day: Day 3.5; for concentration at 10.5 day: Day 10.5; for concentration at 17.5 day: Day 17.5
Procedure: as §1

[3] = female, C57BL/6, mouse, plasma, oral, DEX conc, plasma, repeated study, VD3 Sufficient, F, n=5

In the case of `C[C@@H]1C[C@H]2[C@@H]3CCC4=CC(=O)C=C[C@]4(C)[C@@]3(F)[C@@H](O)C[C@]2(C)[C@@]1(O)C(=O)CO` [DEX, dexamethasone], the EC50 (GCR) is given as 11 nM, the “estimated Cgut (gut concentration)” value ([1]; discontinuous DEX in drinking water, assuming mice drink 200–400 μl/hr) is given as 7 to 10 µM and 7.6 to 10.1 µM and the concentration at 3.5 day ([1]; female, plasma, avg, VD3 deficient, D3.5, n=5) is given as 78 nM. The concentration at 10.5 day ([1]; female, plasma, avg, VD3 deficient, D10.5, n=4) was 63 nM, the concentration at 17.5 day ([1]; female, plasma, avg, VD3 deficient, D17.5, n=4) was 58.5 nM and the concentration at 3.5 day ([1]; female, plasma, avg, VD3 sufficient, D3.5, n=5) was 99.3 nM. For the same compound, the concentration at 10.5 day ([1]; female, plasma, avg, VD3 sufficient, D10.5, n=4) was 52.7 nM, the concentration at 17.5 day ([1]; female, plasma, avg, VD3 sufficient, D17.5, n=5) was 38.7 nM and the concentration at 10.5 day ([1]; female, plasma, individual mouse, VD3 deficient (GCD), D10.5) was 58.6 nM. The concentration at 3.5 day ([1]; female, plasma, individual mouse, VD3 sufficient (MRE), D3.5) was 95.6 nM, the concentration at 10.5 day ([1]; female, plasma, individual mouse, VD3 sufficient (MRE), D10.5) was 49.9 nM and the concentration at 3.5 day ([1]; male, plasma, avg, plasma, male, VD3 deficient, day 3.5, n=8) was 31.7 nM. For the same compound, the concentration at 10.5 day ([1]; male, plasma, avg, plasma, male, VD3 deficient, day 10.5, n=13) was 25.3 nM, the concentration at 17.5 day ([1]; male, plasma, avg, plasma, male, VD3 deficient, day 17.5, n=13) was 13.1 nM and the concentration at 3.5 day ([1]; male, plasma, avg, plasma, male, VD3 sufficient, day 3.5, n=11) was 12.4 nM. For the same compound, the concentration at 10.5 day ([1]; male, plasma, avg, plasma, male, VD3 sufficient, day 10.5, n=11) was 18 nM, the concentration at 17.5 day ([1]; male, plasma, avg, plasma, male, VD3 sufficient, day 17.5, n=11) was 13.3 nM and the “observed systemic (plasma) concentrations of DEX, range” value [1] was 2.6 to 201.5 nM. For the same compound, the “observed systemic (plasma) concentrations of DEX, range” value ([1]; listed as Dexamethasone) was 2 to 200 nM, the “Dexamethasone conc, individual mouse” value ([1]; plasma, female, VD3 deficient (GCD), D3.5) was 88.42 nM and 34.10 nM and 126.21 nM and 104.66 nM and 36.85 nM and the “Dexamethasone conc, individual mouse” value ([1]; plasma, female, VD3 deficient (GCD), D10.5) was 55.47 nM and 71.15 nM and 66.95 nM. For the same compound, the “Dexamethasone conc, individual mouse” value ([1]; plasma, female, VD3 deficient (GCD), D17.5) was 84.72 nM and 78.40 nM and 26.56 nM and 44.39 nM, the “Dexamethasone conc, individual mouse” value ([1]; plasma, female, VD3 sufficient (MRE), D3.5) was 94.88 nM and 116.14 nM and 126.22 nM and 63.45 nM and the “Dexamethasone conc, individual mouse” value ([1]; plasma, female, VD3 sufficient (MRE), D10.5) was 50.92 nM and 57.26 nM. The “Dexamethasone conc, individual mouse” value ([1]; plasma, female, VD3 sufficient (MRE), D17.5) was 24.99 nM and 23.28 nM and 21.33 nM and 61.18 nM and 62.62 nM, the “Dexamethasone conc, individual mouse” value ([1]; plasma, male, VD3 deficient (GCD), 3.5 Days, discontinuous DEX in drinking water) was 28.49 nM and 21.78 nM and 23.16 nM and 14.22 nM and 52.94 nM and 69.07 nM and 12.19 nM and the “Dexamethasone conc, individual mouse” value ([1]; plasma, male, VD3 deficient (GCD), 10.5 Days) was 24.64 nM and 18.60 nM and 35.12 nM and 50.14 nM and 22.77 nM and 19.09 nM and 13.20 nM and 32.61 nM and 4.50 nM and 20.98 nM and 51.76 nM and 9.92 nM. For the same compound, the “Dexamethasone conc, individual mouse” value ([1]; plasma, male, VD3 deficient (GCD), 17.5 Days) was 7.03 nM and 9.03 nM and 37.95 nM and 11.09 nM and 12.27 nM and 10.43 nM and 10.75 nM and 8.20 nM and 7.99 nM and 10.52 nM and 14.43 nM and 17.77 nM, the “Dexamethasone conc, avg” value ([1]; plasma, male, VD3 deficient, day 3.5, n=8) was 31.70 nM and the “Dexamethasone conc, individual mouse” value ([1]; plasma, male, VD3 sufficient (MRE), 3.5 Days) was 10.97 nM and 6.41 nM and 7.05 nM and BLQ (BLQ = BELOW the LLOQ, lower lmit of quantification = 5 nM dexamethasone) and 3.62 nM and 34.11 nM. The “Dexamethasone conc, individual mouse” value ([1]; plasma, male, VD3 sufficient (MRE), 10.5 Days) was 56.24 nM and 2.95 nM and 2.63 nM and 10.01 nM and 12.14 nM and BLQ (BLQ = BELOW the LLOQ, lower lmit of quantification = 5 nM dexamethasone) and 34.37 nM and 7.89 nM, the “Dexamethasone conc, individual mouse” value ([1]; plasma, male, VD3 sufficient (MRE), 17.5 Days) was 9.70 nM and 6.19 nM and 17.34 nM and 10.75 nM and 11.40 nM and 11.09 nM and 17.17 nM and 6.62 nM and 29.23 nM and the “share of mice with measurable DEX” value ([2]; female VD3 deficient) was 100%. For the same compound, the “share of mice with DEX plasma concentration below LLOQ” value ([2]; female VD3 sufficient) was 68%, the concentration at 3.5 days ([2]; female, C57BL/6, mouse, plasma, oral, 8 mg/L in drinking water, DEX conc, individual mouse, repeated study, VD3 Suf, 3.5 Days) was 52.8 nM and the concentration at 10.5 days ([2]; female, C57BL/6, mouse, plasma, oral, 8 mg/L in drinking water, DEX conc, individual mouse, repeated study, VD3 Suf, 10.5 Days) was 6.84 nM. It also gave a concentration at 3.5 day ([2]; female, C57BL/6, mouse, plasma, oral, DEX conc, plasma, repeated study, VD3 Deficient, F, n=15) of 51.8 ± 86.8 nM, a concentration at 10.5 day ([2]; female, C57BL/6, mouse, plasma, oral, DEX conc, plasma, repeated study, VD3 Deficient, F, n=10) of 116 ± 169 nM and a concentration at 17.5 day ([2]; female, C57BL/6, mouse, plasma, oral, DEX conc, plasma, repeated study, VD3 Deficient, F, n=5) of 106 ± 65.5 nM. For the same compound, the concentration at 3.5 day [2, 3] was 47.2 ± 9.15 nM, the concentration at 10.5 day ([2]; female, C57BL/6, mouse, plasma, oral, DEX conc, plasma, repeated study, VD3 Sufficient, F, n=3) was 7.71 ± 1.12 nM and the concentration at 17.5 day [2, 3] was 45.6 ± 27.2 nM. The “% BLQ” value ([2]; female, VD3 Def, 3.5 Days) was 0%, the “% BLQ” value ([2]; female, VD3 Def, 10.5 Days) was 0% and the “% BLQ” value ([2]; female, VD3 Def, 17.5 Days) was 0%. The “% BLQ” value ([2]; female, VD3 Suf, 3.5 Days) was 67%, the “% BLQ” value ([2]; female, VD3 Suf, 10.5 Days) was 70% and the “% BLQ” value ([2]; female, VD3 Suf, 17.5 Days) was 0%. For the same compound, the “share of mice with measurable DEX” value ([2]; male VD3 deficient) was 96.5%, the “share of mice with DEX plasma concentration below LLOQ” value ([2]; male VD3 sufficient) was 83% and the concentration at 3.5 day ([2]; male, C57BL/6, mouse, plasma, oral, DEX conc, plasma, repeated study, VD3 Deficient, M, n=13) was 16 ± 16.6 nM. It also gave a concentration at 10.5 day ([2]; male, C57BL/6, mouse, plasma, oral, DEX conc, plasma, repeated study, VD3 Deficient, M, n=10) of 48.7 ± 59.4 nM and a concentration at 17.5 day ([2]; male, C57BL/6, mouse, plasma, oral, DEX conc, plasma, repeated study, VD3 Deficient, M, n=5) of 16.7 ± 7.19 nM.

From article PMC8528301 (PLoS ONE, 2021)
